# Measured values: patent publication US9932333B2, “Benzothiazole compound and medicine containing same” (JAPAN SCIENCE AND TECHNOLOGY AGENCY, priority 2014, dated 2018)
# Square brackets hold non-standard residues; d marks the D form. Peptide text beside a SMILES is read from it. * marks the point of attachment. X1 = C[n+]1c(-c2ccc3c(c2)CCCN3CCCCCC(=O)*)sc2cc(Br)ccc21; dBip = N[C@H](Cc1ccc(-c2ccccc2)cc1)C(=O)O
# Tests used:
# Aβ1-42 = Aβ1-42 (Homo sapiens, UniProt P05067); assay: Oxygenation of Aβ1-42 in cell culture medium; format: biochemical; conditions: 50 mmol %, light 500 nm, 30 minutes, medium containing 0.1% horse serum
# Description: Then, the reaction was monitored with a mass spectrometer (MALDI-TOF MS).
# PC12 cells = format: cell-based, rat
# Experimental: The solution was added at 50 μL/well to rat adrenal medulla-derived pheochromocytoma PC12 cells (purchased from RIKEN, Japan) inoculated to a poly-D-lysine-coated 96-well plate and similarly reacted. The reaction solution in each well was diluted with 50 μL of a Dulbecco's modified eagle's medium containing 0.1% horse serum (final concentration of Aβ: 10 μM) and then incubated at 37° C. for 48 hours in a 5% CO2 atmosphere. A live cell count measurement reagent SF containing WST-8 (10 μL; purchased from Nacalai Tesque, Inc.) was added to each well, and the mixture was incubated at 37° C. for 3 hours in a 5% CO2 atmosphere. Then, the cell viability was measured from absorbance at 450 nm (reference wavelength: 655 nm).
# amylin = target: T1, amylin (Homo sapiens, UniProt P10997); assay: Oxidation reaction of amylin; format: biochemical; conditions: pre-incubation 0 h
# T1 construct: amylin, a hormone essential for glycemic control
# T1 sequence (P10997 34-70 limits assumed): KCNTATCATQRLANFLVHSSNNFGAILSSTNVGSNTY
# Experimental: (§1) Then, the reaction was monitored with a mass spectrometer (MALDI-TOF MS) or LC/MS (ESI-Q).
# The amino acid analysis of oxidized Aβ1-42 and oxidized amylin (carried out by Peptide Institute, Inc.) was conducted. The oxidized Aβ1-42 and the oxidized amylin were enzymatically digested with endopeptidase Lys-C and chymotrypsin, respectively, and the obtained digests were analyzed with a mass spectrometer (MALD-TOF MS) and LC/MS/MS (ESI-Q-TOF).
# angiotensin IV = angiotensin IV (Homo sapiens, UniProt P01019); assay: Oxidation reaction of angiotensin IV (Example 3); format: biochemical; conditions: light irradiation 1.5 hours, neutral buffer, 37° C.
# Description: as §1
# methionine enkephalin = methionine enkephalin (Homo sapiens, UniProt P01210); assay: Oxidation reaction of methionine enkephalin (Example 3); format: biochemical; conditions: light irradiation 1.5 hours, neutral buffer, 37° C.
# Description: as §1
# Aβ1-42, sequence (P05067 672-713 limits assumed): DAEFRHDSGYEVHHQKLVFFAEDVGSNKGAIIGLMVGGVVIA
SMILES,oxygenation of Aβ in a cell medium (Aβ1-42),phototoxicity (cell viability) (PC12 cells),oxygenation of amylin in a monomeric state (amylin),oxygenation of angiotensin IV (angiotensin IV),oxygenation of methionine enkephalin (methionine enkephalin)
CC(C)C[C@@H](NC(=O)[C@@H](CCCCN)NC(=O)CCCCCN1CCCc2cc(-c3sc4cc(Br)ccc4[n+]3C)ccc21)C(=O)N[C@@H](C(=O)N[C@H](Cc1ccc(-c2ccccc2)cc1)C(=O)N[C@H](Cc1ccccc1)C(=O)O)C(C)C [1e] (X1-[dK][dL][dV][dBip][dF]-OH),approximately 40%,no phototoxicity,–,–,–
"Cc1cc2nc3c(=O)[nH]c(=O)nc-3n(C[C@H](O)[C@H](O)[C@H](O)CO)c2cc1C [riboflavin, reference compound]",–,–,high oxidative activity against monomeric amylin,approximately 40%,~60%
